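Values below derive from 48-hour exposures of cells grown in 96-well plates, with endpoints linearly interpolated between the two concentrations bracketing the appropriate inhibition level. The concentration for 50% growth inhibition is given as GI50.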 Calls of active or inactive are those of the source. Rule as the data show it: active = GI50 up to about 1.1 µM and inactive = higher.
How the values were obtained:
Test in all cases: inhibition of tumour cell growth, NCI panel, 48 h
A498 = system: A498
SK-MEL-28 = system: SK-MEL-28
SK-MEL-5 = system: SK-MEL-5
SK-MEL-2 = system: SK-MEL-2
ACHN = system: ACHN
SF-539 = system: SF-539
OVCAR-5 = system: OVCAR-5
UO-31 = system: UO-31
MOLT-4 = system: MOLT-4
SW-620 = system: SW-620
SNB-19 = system: SNB-19
HCT-116 = system: HCT-116
PC-3 = system: PC-3
OVCAR-4 = system: OVCAR-4
K562 = system: K562
SN12C = system: SN12C
CAKI-1 = system: CAKI-1
TK-10 = system: TK-10
HT-29 = system: HT-29
MCF7 = system: MCF7

Measured: GI50

COc1cc(OC)c2c(c1OC)OCC(Cc1ccc(O)cc1)C2=O (stereo unspecified)
inactive: A498 > 25 µM | SK-MEL-28 > 25 µM | SK-MEL-5 19.8 µM | SK-MEL-2 > 25 µM | ACHN > 25 µM | SF-539 > 25 µM | OVCAR-5 > 25 µM | UO-31 > 25 µM | MOLT-4 > 25 µM | SW-620 > 25 µM | SNB-19 > 25 µM | HCT-116 > 25 µM | PC-3 > 25 µM | OVCAR-4 > 25 µM | K562 > 25 µM | SN12C > 25 µM | CAKI-1 > 25 µM | TK-10 > 25 µM | HT-29 > 25 µM

O=C(CC(CC(=O)Oc1c(Br)cc(Br)cc1C(=O)O)C(=O)Oc1c(Br)cc(Br)cc1C(=O)O)Oc1c(Br)cc(Br)cc1C(=O)O
inactive: A498 81.5 µM | SK-MEL-28 > 100 µM | SK-MEL-5 > 100 µM | SK-MEL-2 39.2 µM | ACHN > 100 µM | SF-539 48.1 µM | OVCAR-5 45.1 µM | UO-31 36.5 µM | MOLT-4 46.5 µM | SW-620 69.5 µM | SNB-19 48.8 µM | HCT-116 43.6 µM | OVCAR-4 50.2 µM | K562 41.4 µM | SN12C 52.1 µM | CAKI-1 72.6 µM | TK-10 51.4 µM | HT-29 49.2 µM

CN1CCN(c2ccc3nc(C4=C(O)C(=O)c5c(nc(CO)n5C)C4=O)[nH]c3n2)CC1
inactive: SK-MEL-28 > 100 µM | SK-MEL-2 55.1 µM | ACHN > 100 µM | SF-539 20.9 µM | OVCAR-5 > 100 µM | UO-31 > 100 µM | MOLT-4 56.2 µM | SW-620 > 100 µM | SNB-19 > 100 µM | HCT-116 > 100 µM | PC-3 > 100 µM | OVCAR-4 > 100 µM | K562 59.8 µM | SN12C > 100 µM | CAKI-1 > 100 µM | HT-29 > 100 µM

CCOC(=O)c1c(NC(=O)c2ccccc2)c(C#N)c2n1CCCCC2
inactive: SK-MEL-28 > 100 µM | SK-MEL-5 > 100 µM | ACHN > 100 µM | OVCAR-5 > 100 µM | UO-31 > 100 µM | MOLT-4 > 100 µM | MCF7 > 100 µM | SNB-19 > 100 µM | HCT-116 > 100 µM | PC-3 > 100 µM | OVCAR-4 > 100 µM | K562 > 100 µM | SN12C > 100 µM | CAKI-1 > 100 µM | TK-10 > 100 µM | HT-29 > 100 µM

O=C(N/C(=C\c1ccccc1O)c1nc2ccccc2[nH]1)c1ccccc1
inactive: A498 62.4 µM | SK-MEL-28 > 100 µM | SK-MEL-5 95.7 µM | SK-MEL-2 74.1 µM | ACHN 73.8 µM | SF-539 75.7 µM | OVCAR-5 > 100 µM | UO-31 > 100 µM | MOLT-4 > 100 µM | SW-620 > 100 µM | SNB-19 39.7 µM | HCT-116 89.7 µM | OVCAR-4 > 100 µM | K562 > 100 µM | SN12C 89.7 µM | CAKI-1 > 100 µM | TK-10 41.5 µM | HT-29 > 100 µM

COc1ccc2c(c1)C=C(C(C)(C)C)NS2(=O)=O
inactive: A498 > 100 µM | SK-MEL-28 > 100 µM | SK-MEL-5 > 100 µM | SK-MEL-2 > 100 µM | ACHN > 100 µM | SF-539 > 100 µM | OVCAR-5 > 100 µM | UO-31 > 100 µM | MOLT-4 > 100 µM | SW-620 > 100 µM | SNB-19 > 100 µM | HCT-116 > 100 µM | OVCAR-4 > 100 µM | K562 > 100 µM | SN12C > 100 µM | CAKI-1 > 100 µM | TK-10 > 100 µM | HT-29 > 100 µM

COc1cc(C(c2cccc3ccccc23)N2C(=O)CCC2C(=O)NCc2ccccc2)cc(OC)c1OC (stereo unspecified)
inactive: A498 > 100 µM | SK-MEL-28 > 100 µM | SK-MEL-5 > 100 µM | SK-MEL-2 > 100 µM | SF-539 > 100 µM | OVCAR-5 > 100 µM | UO-31 > 100 µM | MOLT-4 78 µM | MCF7 > 100 µM | SW-620 > 100 µM | SNB-19 > 100 µM | HCT-116 > 100 µM | OVCAR-4 > 100 µM | SN12C > 100 µM | CAKI-1 > 100 µM | HT-29 > 100 µM

Nc1ncnc2c1nnn2C1C=C(CO)C(O)C1O (stereo unspecified)
inactive: A498 > 100 µM | SK-MEL-28 65.3 µM | SK-MEL-5 > 100 µM | SK-MEL-2 > 60 µM | ACHN > 53.5 µM | SF-539 > 85.3 µM | OVCAR-5 48.3 µM | UO-31 42.5 µM | MOLT-4 > 100 µM | SW-620 29.4 µM | SNB-19 > 100 µM | HCT-116 27.8 µM | OVCAR-4 32.4 µM | K562 40.8 µM | SN12C 33 µM | CAKI-1 74 µM | TK-10 > 92.5 µM | HT-29 35.3 µM

N#CC(C#N)C(c1ccccc1)c1ccccc1
inactive: A498 > 100 µM | SK-MEL-28 > 100 µM | SK-MEL-5 > 100 µM | SK-MEL-2 > 100 µM | ACHN > 100 µM | SF-539 > 100 µM | OVCAR-5 > 100 µM | UO-31 > 100 µM | MOLT-4 82 µM | SW-620 > 100 µM | SNB-19 > 100 µM | HCT-116 > 100 µM | OVCAR-4 > 100 µM | K562 91 µM | SN12C > 100 µM | CAKI-1 > 100 µM | TK-10 > 100 µM

O=S(=O)(NC(c1ccccc1)(c1cc2ccccc2[nH]1)c1cc2ccccc2n1S(=O)(=O)c1ccccc1)c1ccccc1 (stereo unspecified)
inactive: A498 > 100 µM | SK-MEL-28 > 100 µM | SK-MEL-5 > 100 µM | SK-MEL-2 28.9 µM | OVCAR-5 > 100 µM | UO-31 > 100 µM | MOLT-4 > 100 µM | SW-620 > 100 µM | SNB-19 > 100 µM | HCT-116 > 100 µM | PC-3 > 100 µM | OVCAR-4 > 100 µM | K562 > 100 µM | CAKI-1 > 100 µM | TK-10 > 100 µM | HT-29 > 100 µM

O=C1CCC(=O)c2sccc2N1
inactive: A498 > 100 µM | SK-MEL-28 > 100 µM | SK-MEL-5 > 100 µM | SK-MEL-2 > 100 µM | ACHN > 100 µM | SF-539 > 100 µM | OVCAR-5 > 100 µM | UO-31 > 100 µM | MOLT-4 > 100 µM | SW-620 > 100 µM | SNB-19 > 100 µM | HCT-116 > 100 µM | OVCAR-4 > 100 µM | K562 > 100 µM | SN12C > 100 µM | CAKI-1 > 100 µM | TK-10 > 100 µM | HT-29 > 100 µM

O=C1OC(OCC#CCOC2OC(=O)C(Cl)=C2Cl)C(Cl)=C1Cl (stereo unspecified)
inactive: SK-MEL-28 15.3 µM | SK-MEL-5 18.2 µM | SK-MEL-2 15.8 µM | ACHN 16.2 µM | SF-539 16.5 µM | OVCAR-5 16.6 µM | UO-31 11.6 µM | MOLT-4 2.43 µM | MCF7 6.17 µM | SW-620 4.45 µM | SNB-19 16.1 µM | HCT-116 10.2 µM | PC-3 13.7 µM | SN12C 17.3 µM | TK-10 9.16 µM | HT-29 5.6 µM

Cc1ccc(-c2nc(Cc3n[nH]c(-c4ccc(C)cc4)n3)n[nH]2)cc1
inactive: SK-MEL-28 > 100 µM | SK-MEL-5 > 100 µM | SK-MEL-2 > 100 µM | ACHN 6.38 µM | SF-539 > 100 µM | OVCAR-5 > 100 µM | UO-31 > 100 µM | MOLT-4 > 100 µM | MCF7 > 100 µM | SW-620 > 100 µM | SNB-19 44.2 µM | HCT-116 36.1 µM | PC-3 > 100 µM | OVCAR-4 3.75 µM | K562 > 100 µM | SN12C > 100 µM | TK-10 > 100 µM | HT-29 > 100 µM

N#CCc1ccc(C(C#N)/C(CCCC(=O)Nc2cccc([N+](=O)[O-])c2)=N/NC(N)=S)cc1 (stereo unspecified)
inactive: A498 > 100 µM | SK-MEL-28 > 100 µM | SK-MEL-5 > 100 µM | SK-MEL-2 > 100 µM | ACHN > 100 µM | SF-539 > 100 µM | OVCAR-5 > 100 µM | UO-31 > 100 µM | MOLT-4 70.3 µM | SW-620 > 100 µM | SNB-19 76 µM | HCT-116 > 100 µM | OVCAR-4 > 100 µM | K562 81.7 µM | SN12C > 100 µM | CAKI-1 > 100 µM | TK-10 > 100 µM | HT-29 > 100 µM

O=c1c(C(c2ccc(O)cc2)c2c(O)oc3ccccc3c2=O)c(O)oc2ccccc12
inactive: A498 > 100 µM | SK-MEL-28 55.5 µM | SK-MEL-5 83.8 µM | SK-MEL-2 > 100 µM | ACHN > 100 µM | UO-31 > 100 µM | SW-620 44.5 µM | SNB-19 71.8 µM | HCT-116 > 100 µM | PC-3 > 100 µM | OVCAR-4 > 100 µM | SN12C 56.8 µM | CAKI-1 85.9 µM | TK-10 > 100 µM | HT-29 97.1 µM

C=C(CN(C)C)C(=O)c1ccccc1
inactive: A498 20.7 µM | SK-MEL-28 16.5 µM | SK-MEL-5 15.2 µM | SK-MEL-2 15.2 µM | ACHN 2.7 µM | SF-539 8.34 µM | OVCAR-5 16.5 µM | UO-31 6.93 µM | MOLT-4 1.91 µM | SW-620 1.69 µM | SNB-19 30.9 µM | HCT-116 5.51 µM | PC-3 16 µM | OVCAR-4 11.4 µM | K562 2.07 µM | SN12C 17.4 µM | CAKI-1 4.75 µM | TK-10 4.49 µM | HT-29 10.2 µM

Reference: ChEMBL document CHEMBL1201862, “PubChem BioAssay data set” (2004)
